Measurements from PubChem BioAssay AID212 (DTP/NCI, 2004).
Several values for one entry are separate records, joined by “and”; a condition that tells them apart may be missing. Equal values may be shown once. Records with an inconclusive call do not appear.

Tested on: BDF1 mice, colon carcinoma 38 sc, T/C %
Experiment: NCI In Vivo Anticancer Drug Screen. Data for tumor model Colon Carcinoma 38 (subcutaneous) in B6D2F1 (BDF1) mice
Settings: endpoint: median tumor weight (est.), schedule: Q07DX002 (ip), higher = larger tumour
How it was run: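 T/C readout: treated group (T) measurement over vehicle control group (C) measurement. Endpoint is survival or tumor size in mice bearing a transplanted tumor.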

[1] = dose: 25.0 mg/kg/injection, vehicle: saline with Tween-80
[2] = dose: 50.0 mg/kg/injection, vehicle: saline with Tween-80
[3] = dose: 100.0 mg/kg/injection, vehicle: saline with Tween-80
[4] = dose: 200.0 mg/kg/injection, vehicle: saline with Tween-80
[5] = dose: 400.0 mg/kg/injection, vehicle: saline with Tween-80

COC1CC(C)C(OC)C2=CC(=O)C=C(NC(=O)/C(C)=C/C=C\C(C)C(OC(N)=O)/C(C)=C\C(C)C1OC)C2=O (configuration not stated)
T/C (dose: 3.13 mg/kg/injection, vehicle: saline + alcohol): 111 % of control | T/C (dose: 6.25 mg/kg/injection, vehicle: saline + alcohol): 110 % of control | T/C (dose: 12.5 mg/kg/injection, vehicle: saline + alcohol): 105 % of control | T/C (dose: 25.0 mg/kg/injection, vehicle: saline + alcohol): 110 % of control | T/C (dose: 50.0 mg/kg/injection, vehicle: saline + alcohol): 102 % of control

O=C(Nc1cccc2c(OC(=O)C(Cl)Cl)c(N=Nc3ccc(S(=O)(=O)Nc4nccs4)cc3)cc(N=Nc3ccc(S(=O)(=O)Nc4nccs4)cc3)c12)C(Cl)Cl (tested in a mixture with another compound)
T/C (dose: 6.25 mg/kg/injection, vehicle: saline with Tween-80): 91 % of control | T/C (dose: 12.5 mg/kg/injection, vehicle: saline with Tween-80): 100 % of control | T/C [1]: 77 % of control | T/C [2]: 92 % of control | T/C [3]: 88 % of control

CC1(C)OC1CS(=O)c1ccccc1 (configuration not stated)
T/C [1]: 110 % of control | T/C [2]: 105 % of control | T/C [3]: 92 % of control | T/C [4]: 86 % of control | T/C [5]: 105 % of control | T/C (dose: 800.0 mg/kg/injection, vehicle: saline with Tween-80): 76 % of control

COc1cccc2c1C(=O)c1c(O)c3c(c(O)c1C2=O)C[C@H](O)C[C@@H]3OC1CC(N)C(O)C(C)O1 (some centres not stated)
T/C (dose: 3.38 mg/kg/injection, vehicle: water): 97 % of control | T/C (dose: 13.5 mg/kg/injection, vehicle: water): 108 % of control | T/C (dose: 15.0 mg/kg/injection, vehicle: saline): 87 % of control | T/C (dose: 24.0 mg/kg/injection, vehicle: saline): 101 % of control | T/C (dose: 27.0 mg/kg/injection, vehicle: water): 55 % of control | T/C (dose: 38.0 mg/kg/injection, vehicle: saline): 61 % of control

O=C1OCC2C(=O)OCC12 (configuration not stated)
T/C [1]: 103 % of control | T/C [3]: 46 % of control | T/C [4]: 120 % of control | T/C [5]: 69 % of control

CC(C)[NH-].CC(C)[NH-].[Cl][Pt+2][Cl]
T/C (dose: 3.12 mg/kg/injection, vehicle: dextrose): 15 % of control | T/C (dose: 3.13 mg/kg/injection, vehicle: dextrose): 122 % of control | T/C (dose: 6.25 mg/kg/injection, vehicle: dextrose): 77 % of control | T/C (dose: 6.25 mg/kg/injection, vehicle: other): 104 % of control | T/C (dose: 12.5 mg/kg/injection, vehicle: dextrose): 71 % of control | T/C (dose: 12.5 mg/kg/injection, vehicle: other): 53 % of control | T/C (dose: 25.0 mg/kg/injection, vehicle: dextrose): 79 % of control and 88 % of control | T/C (dose: 25.0 mg/kg/injection, vehicle: other): 84 % of control | T/C (dose: 50.0 mg/kg/injection, vehicle: dextrose): 58 % of control and 71 % of control | T/C (dose: 50.0 mg/kg/injection, vehicle: other): 122 % of control | T/C (dose: 100.0 mg/kg/injection, vehicle: other): 52 % of control
